Measured values from patent US20230277698A1, “SILICON-CONTAINING LIGAND COMPOUNDS” (Technische Universität München, priority 2020, published 2023).

Columns and labels:
LNCaP cells = experiment: Internalization studies on LNCaP cells; type: cell-based; conditions: 177Lu-labelled, c=1.0 nM, 1 hour, 37 °C; % of reference ligand ([125I]I-BA)KuE (c=0.2 nM); corrected for non-specific binding (PMPA); mean±SD, n=3-6
Procedure: PSMA-positive LNCAP cells (300265; Cell Lines Service, Eppelheim, Germany) were cultivated in Dulbecco modified Eagle medium/Nutrition Mixture F-12 with Glutamax (1:1) (DMEM-F12, Biochrom, Berlin, Germany) supplemented with fetal bovine serum (10%, FBS Zellkultur, Berlin, Germany) and kept at 37° C. in a humidified CO2 atmosphere (5%). A mixture of trypsin and EDTA (0.05%, 0.02%) in PBS (Biochrom) was used in order to harvest cells. Cells were counted with a Neubauer hemocytometer (Paul Marienfeld, Lauda-Königshofen, Germany).
For internalization studies, LNCaP cells were harvested 24±2 hours before the experiment and seeded in poly-L-lysine coated 24-well plates (1.25×10^5 cells in 1 mL/well, Greiner Bio-One, Kremsmünster, Austria). After removal of the culture medium, the cells were washed once with 500 μL DMEM-F12 (5% BSA) and left to equilibrate for at least 15 min at 37° C. in 200 μL DMEM-F12 (5% BSA). Each well was treated with either 25 μL of either DMEM-F12 (5% BSA, control) or 25 μL of a 100 μM PMPA (2-(Phosphonomethyl)-pentandioic acid, Tocris Bioscience, Bristol, UK) solution in PBS, for blockade. Next, 25 μL of the radioactive-labelled PSMA inhibitor (10.0 nM in PBS) was added and the cells were incubated at 37° C. for 60 min. The experiment was terminated by placing the 24-well plate on ice for 3 min and consecutive removal of the medium. Each well was carefully washed with 250 μL of ice-cold HBSS. Both fractions from the first steps, representing the amount of free radioligand, were combined. Removal of surface bound activity was accomplished by incubation of the cells with 250 μL of ice-cold PMPA (10 μM in PBS) solution for 5 min and rinsed again with another 250 μL of ice-cold PBS. The internalized activity was determined by incubation of the cells in 250 μL 1 M aqueous NaOH for at least 10 min. The obtained fractions were combined with those of the subsequent wash step with 250 μL 1 M aqueous NaOH. Each experiment (control and blockade) was performed in triplicate. Free, surface bound and internalized activity was quantified in a γ-counter. All internalization studies were accompanied by external reference studies, using ([^125I]l-BA)KuE (c=0.2 nM), which were performed analogously. Data were corrected for non-specific binding and normalized to the specific-internalization observed for the radioiodinated reference compound.
Data is corrected for non-specific binding (10 μmol PMPA) and expressed as mean±SD (n=3-6): […]

[1] = biological target: human serum albumin (HSA) (Homo sapiens, UniProt P02768); experiment: HSA binding by high performance affinity chromatography (HiPAC); type: in vitro ADME; design: purchased Daicel, Tokyo, Japan H13H-2433; conditions: lutetium-complexed; Chiralpak HSA column
Procedure: HSA binding of the PSMA-addressing ligands was determined according to a previously published procedure via HPLC (Valko, K.; Nunhuck, S.; Bevan, C.; Abraham, M. H.; Reynolds, D. P., Fast gradient HPLC method to determine compounds binding to human serum albumin. Relationships with octanol/water and immobilized artificial membrane lipophilicity. J Pharm Sci. 2003, 92, 2236-2248). A Chiralpak HSA column (50×3 mm, 5 μm, H13H-2433, Daicel, Tokyo, Japan) was used at a constant flow rate of 0.5 mL/min at rt. Mobile phase A was a freshly prepared 50 mM aqueous solution of NH4OAc (pH 6.9) and mobile phase B was isopropanol (HPLC grade, VWR). The applied gradient for all experiments was 100% A (0 to 3 min), followed by 80% A (3 to 40 min). Prior to the experiment, the column was calibrated using nine reference substances with a HSA binding, known from literature, in the range of 13 to 99% (Valko, K.; Nunhuck, S.; Bevan, C.; Abraham, M. H.; Reynolds, D. P., J Pharm Sci. 2003, 92, 2236-2248; Yamazaki, K.; Kanaoka, M., Computational prediction of the plasma protein-binding percent of diverse pharmaceutical compounds. J Pharm Sci. 2004, 93, 1480-1494). All substances, including the examined PSMA ligands, were dissolved in a 1:1 mixture (v/v) of isopropanol and a 50 mM aqueous solution of NH4OAc (pH 6.9) with a final concentration of 0.5 mg/mL. Non-linear regression was established with the OriginPro 2016G software (Northampton, United States).
FIG. 1 is an exemplary sigmoidal plot, showing the correlation between human serum albumin (HSA) binding of selected reference substances and retention time (tR). The underlying values of HSA binding also shown in the corresponding table and were obtained from literature (Valko, K.; Nunhuck, S.; Bevan, C.; Abraham, M. H.; Reynolds, D. P., J Pharm Sci. 2003, 92, 2236-2248; Yamazaki, K.; Kanaoka, M., J Pharm Sci. 2004, 93, 1480-1494). Log tR: logarithmic value of experimentally determined retention time. Log K HSA: logarithmic value of HSA binding values.

[2] = test system: LNCaP tumor-bearing CB17-SCID mice; experiment: Biodistribution studies 24 h p.i.; type: in vivo; conditions: 177Lu-labelled, mean±SD, n=4-5; for biodistribution: tumor: LNCaP xenograft; for biodistribution: blood: i.v. tail vein
Procedure: All animal experiments were conducted in accordance with general animal welfare regulations in Germany (German animal protection act, as amended on 18 May 2018, Art. 141 G v. 29.3.2017|626, approval no. 55.2-1-54-2532-71-13) and the institutional guidelines for the care and use of animals. To establish tumor xenografts, LNCaP cells (approx. 10^7 cells) were suspended in 200 μL of a 1:1 mixture (v/v) of DMEM F-12 and Matrigel (BD Biosciences, Germany), and inoculated subcutaneously onto the right shoulder of 6-8 weeks old CB17-SCID mice (Charles River, Sulzfeld, Germany). Mice were used for experiments when tumors had grown to a diameter of 5-10 mm (3-6 weeks after inoculation).
Approximately 5-10 MBq (0.1-0.2 nmol) of the radioactive-labelled PSMA inhibitors were injected into the tail vein of LNCaP tumor-bearing male CB-17 SCID mice and sacrificed after 24 h post injection. Selected organs were removed, weighted and measured in a γ-counter.
FIG. 10 and the following table show the biodistribution data 24 h p.i. of ^177Lu-labeled compounds in LNCaP tumor-bearing CB17-SCID mice. Data are expressed as mean±SD (n=4-5).

Chain of human serum albumin (HSA) (P02768 25-609): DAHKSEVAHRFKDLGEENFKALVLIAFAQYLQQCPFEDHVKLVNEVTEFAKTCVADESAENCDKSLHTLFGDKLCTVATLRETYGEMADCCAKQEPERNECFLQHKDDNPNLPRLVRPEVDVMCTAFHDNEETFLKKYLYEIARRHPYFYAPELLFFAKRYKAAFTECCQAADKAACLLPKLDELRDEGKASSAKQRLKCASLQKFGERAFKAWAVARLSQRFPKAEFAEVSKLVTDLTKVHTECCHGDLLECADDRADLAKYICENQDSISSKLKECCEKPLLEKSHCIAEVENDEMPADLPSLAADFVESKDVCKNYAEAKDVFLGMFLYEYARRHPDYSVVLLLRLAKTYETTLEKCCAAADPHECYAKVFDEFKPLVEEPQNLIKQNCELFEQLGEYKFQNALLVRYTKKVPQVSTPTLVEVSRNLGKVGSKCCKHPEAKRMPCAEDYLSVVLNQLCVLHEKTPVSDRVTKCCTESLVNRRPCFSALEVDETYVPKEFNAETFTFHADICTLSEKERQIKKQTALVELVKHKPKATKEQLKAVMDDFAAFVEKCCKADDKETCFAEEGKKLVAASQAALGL

CC(C)(C)[Si](O)(c1ccc(C(=O)NC[C@@H](NC(=O)CC[C@@H](C(=O)O)N2CCN(CC(=O)O)CCN(CC(=O)O)CCN(CC(=O)O)CC2)C(=O)N[C@H](CCCCNC(=O)CCC(=O)NCCC[C@@H](NC(=O)CC[C@H](NC(=O)N[C@@H](CCC(=O)O)C(=O)O)C(=O)O)C(=O)O)C(=O)O)cc1)C(C)(C)C [7.3-SiOH]
Internalization (% IBA) (LNCaP cells): 225 ± 23 % IBA
HSA-binding HiPAC [1]: 96.4%
biodistribution: tumor [2]: 7.3 ± 0.8 % ID/g
biodistribution: blood [2]: 0.002 ± 0.001 % ID/g
biodistribution: bone [2]: 0.01 ± 0.01 % ID/g
biodistribution: heart [2]: 0.01 ± 0.01 % ID/g
biodistribution: intestine [2]: 0.45 ± 0.39 % ID/g
biodistribution: kidneys [2]: 3.7 ± 1.9 % ID/g
biodistribution: liver [2]: 0.08 ± 0.03 % ID/g
biodistribution: lung [2]: 0.03 ± 0.01 % ID/g
biodistribution: muscle [2]: 0.006 ± 0.005 % ID/g
biodistribution: pancreas [2]: 0.01 ± 0.01 % ID/g
biodistribution: spleen [2]: 0.21 ± 0.11 % ID/g
biodistribution: stomach [2]: 0.24 ± 0.36 % ID/g

CC(C)(C)[Si](O)(c1ccc(C(=O)NC[C@@H](NC(=O)CC[C@@H](C(=O)O)N2CCN(CC(=O)O)CCN(CC(=O)O)CCN(CC(=O)O)CC2)C(=O)N[C@H](CO)C(=O)NCCC(=O)NCCC(=O)NCCC[C@@H](NC(=O)CC[C@H](NC(=O)N[C@@H](CCC(=O)O)C(=O)O)C(=O)O)C(=O)O)cc1)C(C)(C)C [C007-SiOH]
Internalization (% IBA) (LNCaP cells): 185 ± 15 % IBA
HSA-binding HiPAC [1]: 86.3%
biodistribution: tumor [2]: 5.4 ± 0.8 % ID/g
biodistribution: blood [2]: 0.003 ± 0.001 % ID/g
biodistribution: adrenals [2]: 0.20 ± 0.01 % ID/g
biodistribution: bone [2]: 0.02 ± 0.01 % ID/g
biodistribution: heart [2]: 0.02 ± 0.01 % ID/g
biodistribution: intestine [2]: 0.13 ± 0.08 % ID/g
biodistribution: kidneys [2]: 3.5 ± 1.4 % ID/g
biodistribution: liver [2]: 0.40 ± 0.13 % ID/g
biodistribution: lung [2]: 0.04 ± 0.01 % ID/g
biodistribution: muscle [2]: 0.004 ± 0.001 % ID/g
biodistribution: pancreas [2]: 0.01 ± 0.01 % ID/g
biodistribution: parotis [2]: 0.06 ± 0.03 % ID/g
biodistribution: spleen [2]: 0.40 ± 0.10 % ID/g
biodistribution: stomach [2]: 0.04 ± 0.01 % ID/g
biodistribution: submandibularis [2]: 0.03 ± 0.01 % ID/g

CC(C)(C)[Si](O)(c1ccc(C(=O)NC[C@@H](NC(=O)CC[C@@H](C(=O)O)N2CCN(CC(=O)O)CCN(CC(=O)O)CCN(CC(=O)O)CC2)C(=O)NCC(=O)N[C@@H](CCCCNC(=O)CCC(=O)NCCC[C@@H](NC(=O)CC[C@H](NC(=O)N[C@@H](CCC(=O)O)C(=O)O)C(=O)O)C(=O)O)C(=O)O)cc1)C(C)(C)C [E102-SiOH]
Internalization (% IBA) (LNCaP cells): 203 ± 15 % IBA
HSA-binding HiPAC [1]: 95.1%
biodistribution: tumor [2]: 4.4 ± 0.6 % ID/g
biodistribution: blood [2]: 0.002 ± 0.001 % ID/g
biodistribution: adrenals [2]: 0.05 ± 0.03 % ID/g
biodistribution: bone [2]: 0.03 ± 0.01 % ID/g
biodistribution: heart [2]: 0.02 ± 0.02 % ID/g
biodistribution: intestine [2]: 0.43 ± 0.31 % ID/g
biodistribution: kidneys [2]: 3.3 ± 2.9 % ID/g
biodistribution: liver [2]: 0.05 ± 0.02 % ID/g
biodistribution: lung [2]: 0.04 ± 0.02 % ID/g
biodistribution: muscle [2]: 0.001 ± 0.001 % ID/g
biodistribution: pancreas [2]: 0.01 ± 0.01 % ID/g
biodistribution: parotis [2]: 0.02 ± 0.01 % ID/g
biodistribution: spleen [2]: 0.13 ± 0.10 % ID/g
biodistribution: stomach [2]: 0.08 ± 0.07 % ID/g
biodistribution: submandibularis [2]: 0.01 ± 0.01 % ID/g

CC(C)(C)[Si](O)(c1ccc(C(=O)NC[C@@H](NC(=O)CCCCCNC(=O)CCCNC(=O)CC[C@@H](NC(=O)CCC(NC(=O)N[C@@H](CCC(=O)O)C(=O)O)C(=O)O)C(=O)O)C(=O)NCC(=O)N[C@@H](CCCCNC(=O)CC[C@@H](C(=O)O)N2CCN(CC(=O)O)CCN(CC(=O)O)CCN(CC(=O)O)CC2)C(=O)O)cc1)C(C)(C)C (stereo partly drawn) [E104-SiOH]
Internalization (% IBA) (LNCaP cells): 103 ± 2 % IBA
HSA-binding HiPAC [1]: 85.8%

CC(C)(C)[Si](O)(c1ccc(C(=O)N[C@H](CCC(=O)NC[C@@H](NC(=O)CC[C@@H](C(=O)O)N2CCN(CC(=O)O)CCN(CC(=O)O)CCN(CC(=O)O)CC2)C(=O)NCCCCCC(=O)NCCC[C@@H](NC(=O)CC[C@H](NC(=O)N[C@@H](CCC(=O)O)C(=O)O)C(=O)O)C(=O)O)C(=O)O)cc1)C(C)(C)C [P105-SiOH]
Internalization (% IBA) (LNCaP cells): 185 ± 4 % IBA
HSA-binding HiPAC [1]: 97.8%
biodistribution: tumor [2]: 6.3 ± 2.1 % ID/g
biodistribution: blood [2]: 0.004 ± 0.003 % ID/g
biodistribution: adrenals [2]: 0.12 ± 0.01 % ID/g
biodistribution: bone [2]: 0.02 ± 0.01 % ID/g
biodistribution: heart [2]: 0.01 ± 0.01 % ID/g
biodistribution: intestine [2]: 0.08 ± 0.05 % ID/g
biodistribution: kidneys [2]: 4.2 ± 2.5 % ID/g
biodistribution: liver [2]: 0.37 ± 0.07 % ID/g
biodistribution: lung [2]: 0.04 ± 0.01 % ID/g
biodistribution: muscle [2]: 0.004 ± 0.001 % ID/g
biodistribution: pancreas [2]: 0.01 ± 0.01 % ID/g
biodistribution: parotis [2]: 0.07 ± 0.03 % ID/g
biodistribution: spleen [2]: 0.31 ± 0.10 % ID/g
biodistribution: stomach [2]: 0.02 ± 0.01 % ID/g
biodistribution: submandibularis [2]: 0.03 ± 0.01 % ID/g

CC(C)(C)[Si](O)(c1ccc(C[N+](C)(C)CC(=O)NCCC[C@@H](NC(=O)CC[C@@H](C(=O)O)N2CCN(CC(=O)O)CCN(CC(=O)O)CCN(CC(=O)O)CC2)C(=O)NCCCCCC(=O)NCCC[C@@H](NC(=O)CC[C@H](NC(=O)N[C@@H](CCC(=O)O)C(=O)O)C(=O)O)C(=O)O)cc1)C(C)(C)C [P110-SiOH]
Internalization (% IBA) (LNCaP cells): 46 ± 2 % IBA
HSA-binding HiPAC [1]: 31.3%
